Earlier results on 35 compounds are cited in the PKSmart pharmacokinetics tables (Seal et al. 2025).

The data set is described as follows: Lombardo, Berellini, Obach 2018, Drug Metab Dispos 46:1466, doi 10.1124/dmd.118.082966. The conditions noted are these: human; for MRT / Vd / clearance / half-life: in vivo, iv; for fraction unbound: plasma.

Structures are written as SMILES.

In the case of `CC(=O)OCC1=C(C(=O)O)N2C(=O)C(NC(=O)CSc3ccncc3)[C@H]2SC1` (stereo partly drawn), the MRT (in general, a mean duration of stay, worked out from the concentration-time curve) is 0.8 h; the Vd (in general, the apparent volume that relates the amount in the body to the concentration in plasma or blood) was 0.13 L/kg; the clearance (in general, the volume of plasma or blood freed of the substance per unit of time) was 2.7 mL/min/kg; the half-life (as a rule, the time in which the quantity being followed falls by half) is 1.2 h. The fraction unbound – broadly, free concentration divided by total concentration – was 0.55.
Take `CC(C)(C(=O)O)c1ccc(C(=O)CCCN2CCC(OC(c3ccccc3)c3ccccc3)CC2)cc1`: the MRT is 16.7 h, the Vd is 0.41 L/kg, the clearance is 0.4 mL/min/kg and the half-life was 9.8 h. Besides, the fraction unbound was 0.05.
Regarding `Nc1ccn([C@H]2CO[C@@H](CO)S2)c(=O)n1`, the MRT was 6.5 h, the Vd was 1.18 L/kg, the clearance is 3 mL/min/kg and the half-life was 19.2 h.
Regarding `[H]/N=C(\N)c1cccc(CC(C(=O)OC)[C@@H](C)NC(=O)c2ccc(-c3cc[n+]([O-])cc3)cc2)c1` (stereo partly drawn), the MRT was 2.02 h, the Vd is 0.89 L/kg, the clearance is 7.38 mL/min/kg and the half-life was 3 h.
For the compound `CC1(C)C(\C=C/C=C/C=C/C=C2\N(CCCCS(=O)(=O)O)c3ccc4ccccc4c3C2(C)C)=[N+](CCCCS(=O)(=O)[O-])c2ccc3ccccc3c21`, the MRT was 0.086 h, the Vd was 0.035 L/kg, the clearance is 6.8 mL/min/kg and the half-life was 0.065 h. Moreover, the fraction unbound was 0.05.
On to `CN[C@@H]1[C@H](O)[C@H](NC)[C@H]2O[C@@]3(O)C(=O)C[C@@H](C)O[C@H]3O[C@@H]2[C@H]1O`, for which the MRT was 2.2 h, the Vd is 0.13 L/kg, the clearance was 0.99 mL/min/kg and the half-life is 1.8 h.
Take `CC1(C)CC[C@]2(C(=O)O)CC[C@]3(COC(=O)C=Cc4cc(O)ccc4NC(=O)/C=C/C(=O)O)C(=CC[C@@H]4[C@@]5(C)CCC(=O)C(C)(C)[C@@H]5CC[C@]43C)[C@@H]2C1`: the MRT was 3.18 h, the Vd is 1.45 L/kg and the clearance was 7.6 mL/min/kg.
For `Cc1ccccc1N1C(=O)c2cc(S(N)(=O)=O)c(Cl)cc2NC1C` (stereo not drawn), the MRT is 19 h, the Vd is 1.6 L/kg, the clearance is 1.4 mL/min/kg and the half-life was 20 h.
As to `Nc1ccncc1`, the MRT is 4.7 h, the Vd is 2.6 L/kg, the clearance is 9.3 mL/min/kg and the half-life is 3.6 h. In addition, the fraction unbound was 1.
Take `CC(CN1c2ccccc2Sc2ccccc21)N(C)C` (stereo not drawn): the fraction unbound is 0.09.
Regarding `O=c1[nH]c(O)cn1/N=C/c1ccc(-c2ccc([N+](=O)[O-])cc2)o1`, the mean residence time (MRT) was 14 h, the Vd is 0.37 L/kg, the clearance was 0.43 mL/min/kg and the half-life was 10 h.
`C[C@H](CCc1ccc(O)cc1)NCCc1ccc(O)c(O)c1`: the clearance is 115 mL/min/kg.
Turning to `CC1(C)O[C@@H]2[C@@H](CO[C@@]3(COS(N)(=O)=O)OC(C)(C)O[C@@H]23)O1`, the MRT is 48.7 h, the Vd is 0.8 L/kg, the clearance was 0.27 mL/min/kg and the half-life was 34.8 h. Besides, the fraction unbound is 0.72.
`CC(C)(C)C1(O)CC2OC(=O)CC23C(=O)OC2OC(=O)C(O)C231` (stereo not drawn): the MRT is 4 h, the Vd is 2.5 L/kg, the clearance was 10 mL/min/kg and the half-life was 3.2 h.
For `CN[C@@H]1[C@@H](O)[C@@H](O[C@@H]2[C@@H](O)[C@H](O[C@H]3O[C@H]([C@@H](C)N)CC[C@H]3N)[C@@H](N)C[C@H]2N)OC[C@]1(C)O`, the fraction unbound was 1.
`Oc1ccc2c(c1)[C@@]13CCCC[C@@]1(O)[C@@H](C2)N(CC1CCC1)CC3`: the mean residence time MRT is 5.3 h, the Vd was 12 L/kg, the clearance was 41 mL/min/kg and the half-life was 4.8 h. Also, the free fraction (fraction unbound) was 0.17.
With `NCCCCCC(=O)O`, the MRT is 2.6 h, the Vd was 0.39 L/kg, the clearance is 2.5 mL/min/kg and the half-life was 4.9 h. Also, the unbound share (fraction unbound) was 0.92.
For the compound `CCOC(=O)[C@]1(c2ccccc2)CCC=C[C@H]1N(C)C`, the MRT is 4.2 h, the Vd is 4 L/kg, the clearance is 16 mL/min/kg and the half-life is 5 h. Moreover, the fraction unbound is 0.21.
On to `CN1CCN(CCCCN2C(=O)CN(/N=C/c3ccc(-c4ccc(Cl)cc4)o3)C2=O)CC1`, for which the MRT was 100 h, the Vd was 13 L/kg, the clearance was 2.4 mL/min/kg and the half-life is 79 h. The fraction unbound was 0.06.
Regarding `CC(=O)C[C@H](c1ccc([N+](=O)[O-])cc1)c1c(O)c2ccccc2oc1=O`, the MRT was 3.12 h, the Vd was 0.24 L/kg, the clearance was 1.28 mL/min/kg and the half-life was 7.22 h. The fraction unbound is 0.02.
Take `CS(=O)(=O)c1ccc(C(=O)Nc2ccc(Cl)c(-c3ccccn3)c2)c(Cl)c1`: the MRT is 341 h, the clearance was 0.01 mL/min/kg and the half-life is 245 h.
Consider `C/C(=C\c1csc(C)n1)[C@@H]1C[C@@H]2O[C@]2(C)CCC[C@H](C)[C@H](O)C(C)C(=O)C(C)(C)[C@@H](O)CC(=O)O1` (stereo partly drawn), for which the mean residence time MRT is 111 h, the Vd is 14.4 L/kg, the clearance was 2.17 mL/min/kg and the half-life is 92.3 h. The fraction unbound was 0.22.
On to `CSCCNc1nc(SCCC(F)(F)F)nc2c1ncn2[C@@H]1O[C@H](CO[P@](=O)(O)O[P@](=O)(O)C(Cl)(Cl)P(=O)(O)O)[C@@H](O)[C@H]1O`, for which the MRT was 0.07 h, the Vd is 0.035 L/kg, the clearance is 9.06 mL/min/kg and the half-life was 0.14 h. The fraction unbound is 0.02.
For `C[N+](C)(C)C[C@H](O)CC(=O)[O-]`, the MRT was 4.2 h, the Vd was 0.4 L/kg, the clearance is 1.6 mL/min/kg and the half-life was 5 h. Also, the fraction unbound was 1.
With `CC(C)=CCN1CC[C@]2(C)c3cc(O)ccc3C[C@H]1C2C` (stereo partly drawn), the fraction unbound was 0.39.
As for `O=C1CN=C(c2ccccc2)c2cc([N+](=O)[O-])ccc2N1`, the MRT was 33 h, the Vd is 1.7 L/kg, the clearance is 0.86 mL/min/kg and the half-life is 26 h.
For the compound `C=CCN1CC[C@]23c4c5ccc(O)c4OC2C(=O)CC[C@@]3(O)[C@H]1C5` (stereo partly drawn), the MRT is 1.2 h, the Vd is 1.7 L/kg, the half-life is 1.1 h and the fraction unbound is 0.54.
For `Cc1nccn1CCC(C(N)=O)(c1ccccc1)c1ccccc1`, the MRT was 4.1 h, the Vd was 1.51 L/kg, the clearance was 6.1 mL/min/kg and the half-life was 3.2 h. Also, the fraction unbound is 0.12.
For `CCN(CC)CC#CCOC(=O)C(O)(c1ccccc1)C1CCCCC1` (stereo not drawn), the MRT is 2.7 h, the Vd is 0.85 L/kg, the clearance was 5.1 mL/min/kg and the half-life was 7.2 h. Also, the free fraction (fraction unbound) is 0.0034.
`CCN1CC(CCN2CCOCC2)C(c2ccccc2)(c2ccccc2)C1=O` (stereo not drawn): the MRT is 3.7 h, the Vd is 1.2 L/kg, the clearance was 5.3 mL/min/kg and the half-life is 4.1 h.
On to `CC(C)(O)c1ccccc1CC[C@@H](SCC1(CC(=O)O)CC1)c1cccc(/C=C/c2ccc3ccc(Cl)cc3n2)c1`, for which the MRT was 3.8 h, the Vd was 0.15 L/kg, the clearance was 0.68 mL/min/kg and the half-life is 5 h.
In the case of `N=C(N)Nc1ccc(C(=O)Oc2ccc3cc(C(=N)N)ccc3c2)cc1`, the MRT is 1.15 h, the Vd was 5.71 L/kg, the clearance is 82 mL/min/kg and the half-life is 1.84 h.
`CC(Oc1ccc(Oc2cnc3ccc(Cl)cc3n2)cc1)C(=O)O` (stereo not drawn): the MRT was 63 h, the Vd is 0.19 L/kg, the clearance was 0.05 mL/min/kg and the half-life is 48.2 h. Also, the fraction unbound is 0.0036.
As for `C[C@H]1CN(CC(Cc2ccccc2)C(=O)NCC(=O)O)CC[C@@]1(C)c1cccc(O)c1` (stereo partly drawn), the mean residence time MRT is 1.24 h, the Vd was 0.43 L/kg, the clearance was 5.84 mL/min/kg and the half-life was 5.3 h. The fraction unbound is 0.2.
For the compound `Cn1cc(C(=O)C2CCc3[nH]cnc3C2)c2ccccc21` (stereo not drawn), the MRT was 6.28 h, the Vd is 2.65 L/kg, the clearance was 7.03 mL/min/kg and the half-life was 4.94 h.
